Experimental data from paper PMC3252375 (PLoS Pathogens, 2012).
Read-outs that look alike come from different tables or passages of the source.

Key:
[1] = tested on: LncP (Legionella nucleotide carrier Protein)
[2] = tested on: LncP (Legionella nucleotide carrier Protein); assay type: biochemical, Legionella pneumophila

SMILES	Km [1] [µM]	Km [2] [µM]
Nc1ncnc2c1ncn2[C@@H]1O[C@H](COP(=O)(O)OP(=O)(O)OP(=O)(O)O)[C@@H](O)[C@H]1O [ATP]	190 ± 37	–
Nc1nc2c(ncn2[C@@H]2O[C@H](COP(=O)(O)OP(=O)(O)OP(=O)(O)O)[C@@H](O)[C@H]2O)c(=O)[nH]1 [GTP]	–	183 ± 32
